Article PMC3242765, “Inhibitors of Alphavirus Entry and Replication Identified with a Stable Chikungunya Replicon Cell Line and Virus-Based Assays” (PLoS ONE, 2011)

Test system: SFV-Rluc
Conditions: Supplementary Table 2, moderately active compounds (25 - 60% remaining), primary screen at 50 µM

| Compound | % left (remaining SFV replication) |
| --- | --- |
| Cl.Cl.OCCN1CCN(CCC=C2c3ccccc3Sc3ccc(Cl)cc32)CC1 [PC-050] | 55.2% |
| C#CCN(C)[C@H](C)Cc1ccccc1.Cl [PC-055] | 57.6% |
| CC(=O)Oc1c(C)cc(OCC(O)CNC(C)C)c(C)c1C (stereo not shown) [PC-120] | 46.7% |
| O=C1CN=C(c2ccccc2)c2cc([N+](=O)[O-])ccc2N1 [PC-130] | 46.6% |

Same assay, conditions: primary screening of chemical libraries; compounds tested at 50 µM

| Compound | SFV replication % left |
| --- | --- |
| CCN(CC)CCCC(C)Nc1ccnc2cc(Cl)ccc12.O=P(O)(O)O.O=P(O)(O)O (stereo not shown) [PC-044] | 12.2% |
| NS(=O)(=O)c1cc2c(cc1Cl)N=CNS2(=O)=O [PC-045] | 90.3% |
| CN(C)CC/C=C1/c2ccccc2Sc2ccc(Cl)cc21.Cl [PC-047] | 90.3% |
| O=C(O)c1cc(-c2ccccc2)nc2ccccc12 [PC-048] | 65.1% |
| Oc1c(I)cc(Cl)c2cccnc12 [PC-049] | 71.9% |
| Cl.Cl.OCCN1CCN(CCC=C2c3ccccc3Sc3ccc(Cl)cc32)CC1 [PC-050] | 55.2% |
| CC(C)NCC(O)c1ccccc1Cl.Cl.O (stereo not shown) [PC-051] | 63.7% |
| O=S(=O)(O)NC1CCCCC1 [PC-053] | 74.9% |
| C[C@H](CCC(=O)O)[C@H]1CC[C@H]2[C@@H]3CC[C@@H]4C[C@H](O)CC[C@]4(C)[C@H]3C[C@H](O)[C@]12C [PC-054] | 86.5% |
| C#CCN(C)[C@H](C)Cc1ccccc1.Cl [PC-055] | 57.0% |
| Cc1cc(N)c2ccccc2[n+]1CCCCCCCCCC[n+]1c(C)cc(N)c2ccccc21.[Cl-].[Cl-] [PC-056] | 62.5% |
| O=C1CN=C(c2ccccc2F)c2cc(Cl)ccc2N1 [PC-057] | 68.5% |
| CN(C)CC[C@@H](c1ccc(Br)cc1)c1ccccn1.O=C(O)/C=C\C(=O)O [PC-058] | 69.6% |
| CN(C)CC[C@@H](c1ccc(Cl)cc1)c1ccccn1.O=C(O)/C=C\C(=O)O [PC-059] | 68.1% |
| CN1C(=O)CN=C(c2ccccc2)c2cc(Cl)ccc21 [PC-060] | 73.6% |
| CC(C)NCC(O)c1ccc(Cl)c(Cl)c1.Cl (stereo not shown) [PC-062] | 49.6% |
| O=c1oc2ccccc2c(O)c1Cc1c(O)c2ccccc2oc1=O [PC-063] | 65.6% |
| CCN(CC)C(C)C(=O)c1ccccc1.Cl (stereo not shown) [PC-064] | 47.1% |
| C[C@H]1O[C@@H](O[C@H]2[C@@H](O)C[C@H](O[C@H]3[C@@H](O)C[C@H](O[C@H]4CC[C@@]5(C)[C@H](CC[C@@H]6[C@@H]5C[C@@H](O)[C@]5(C)[C@@H](C7=CC(=O)OC7)CC[C@]65O)C4)O[C@@H]3C)O[C@@H]2C)C[C@H](O)[C@@H]1O [PC-065] | 141.9% |
| O=C1c2c(O)cccc2Cc2cccc(O)c21 [PC-066] | 27.2% |
| CN(C)CCOC(c1ccccc1)c1ccccc1.Cl [PC-067] | 41.0% |
| O=C1NC(=O)C(c2ccccc2)(c2ccccc2)N1 [PC-068] | 66.3% |
| Cc1c(N(C)CS(=O)(=O)[O-])c(=O)n(-c2ccccc2)n1C.[Na+] [PC-069] | 86.0% |

| Compound | SFV replication % left |
| --- | --- |
| CN(C)CCC=C1c2ccccc2COc2ccccc21.Cl [PC-070] | 21.6% |
| CCOc1ccc(NC(N)=O)cc1 [PC-071] | 103.3% |
| CC[C@H]1CN2CCc3cc(OC)c(OC)cc3[C@@H]2C[C@@H]1C[C@H]1NCCc2cc(OC)c(OC)cc21.Cl.Cl [PC-072] | 63.1% |
| CCN(CC)C(=O)c1ccc(O)c(OC)c1 [PC-073] | 85.5% |
| CCN(CC)C(C)CN1c2ccccc2Sc2ccccc21.Cl (stereo not shown) [PC-074] | 20.1% |
| CCOC(=O)c1ccc(O)cc1 [PC-075] | 127.8% |
| CCC(N)C(O)c1ccc(O)c(O)c1 (stereo not shown) [PC-076] | 126.8% |
| C#C[C@]1(O)CC[C@H]2[C@@H]3CCc4cc(O)ccc4[C@H]3CC[C@@]21C [PC-077] | 11.7% |
| CCNCC(O)c1cccc(O)c1 (stereo not shown) [PC-078] | 116.8% |
| CC(C(=O)[O-])c1cccc(Oc2ccccc2)c1.CC(C(=O)[O-])c1cccc(Oc2ccccc2)c1.[Ca+2] (stereo not shown) [PC-080] | 87.6% |
| Br.CC(Cc1ccc(O)cc1)NCC(O)c1cc(O)cc(O)c1 (stereo not shown) [PC-081] | 106.6% |
| Cl.Cl.OCCN1CCN(CC/C=C2/c3ccccc3Sc3ccc(C(F)(F)F)cc32)CC1 [PC-082] | 92.6% |
| Nc1ccc(Cl)cc1C(=O)c1ccccc1F [PC-083] | 167.4% |
| O=C(O)/C=C\C(=O)O.O=C(O)/C=C\C(=O)O.OCCN1CCN(CCCN2c3ccccc3Sc3ccc(C(F)(F)F)cc32)CC1 [PC-084] | 98.9% |
| Nc1nc2ncc(CNc3ccc(C(=O)N[C@@H](CCC(=O)O)C(=O)O)cc3)nc2c(=O)[nH]1 [PC-085] | 100.0% |
| COc1ccccc1OCC(O)CO (stereo not shown) [PC-086] | 124.5% |
| CN1C(=O)NC(=O)C(C)(C2=CCCCC2)C1=O (stereo not shown) [PC-087] | 121.3% |
| Oc1ccc(C(O)CNCCCCCCNCC(O)c2ccc(O)c(O)c2)cc1O (stereo not shown) [PC-088] | 124.9% |
| NCCCS(=O)(=O)O [PC-090] | 118.7% |
| NS(=O)(=O)c1cc2c(cc1Cl)NCNS2(=O)=O [PC-091] | 121.2% |
| CC(=O)OCC(=O)[C@@]1(O)CC[C@H]2[C@@H]3CCC4=CC(=O)CC[C@]4(C)[C@H]3[C@@H](O)C[C@@]21C [PC-092] | 116.8% |
| CCN(CCO)CCCC(C)Nc1ccnc2cc(Cl)ccc12.O=S(=O)(O)O (stereo not shown) [PC-093] | 128.9% |
| CNC(C)C(O)c1ccc(O)cc1 (stereo not shown) [PC-094] | 94.4% |

| Compound | SFV replication % left |
| --- | --- |
| CC(CN1c2ccccc2Sc2ccccc21)[N+](C)(C)CCO.[Cl-] (stereo not shown) [PC-096] | 102.2% |
| Cl.Cl.OCCOCCN1CCN(C(c2ccccc2)c2ccc(Cl)cc2)CC1 (stereo not shown) [PC-097] | 98.3% |
| CC(C)Cc1ccc(CC(=O)O)cc1 [PC-098] | 102.2% |
| CC(C)Cc1ccc(C(C)C(=O)O)cc1 (stereo not shown) [PC-099] | 92.8% |
| O[C@H]1[C@H](O)[C@@H](O)[C@H](O)[C@@H](O)[C@H]1O [PC-100] | 106.0% |
| CCC(NC(C)C)C(O)c1ccc(O)c(O)c1 (stereo not shown) [PC-101] | 90.7% |
| CC(C)NCC(O)c1ccc(O)c(O)c1.CC(C)NCC(O)c1ccc(O)c(O)c1.O.O.O=S(=O)(O)O (stereo not shown) [PC-102] | 110.9% |
| CC(C)NCC(O)c1ccc(O)c(O)c1.Cl (stereo not shown) [PC-103] | 112.5% |
| CC(CCc1ccccc1)NCC(O)c1ccc(O)c(C(N)=O)c1.Cl (stereo not shown) [PC-105] | 72.5% |
| O=C1Nc2ccc(Cl)cc2C(c2ccccc2Cl)=NC1O (stereo not shown) [PC-106] | 98.2% |
| CN1CCN=C(c2ccccc2)c2cc(Cl)ccc21 [PC-107] | 87.5% |
| Cc1cccc(Nc2ccccc2C(=O)O)c1C [PC-108] | 103.5% |
| CC1=CC(=O)c2ccccc2C1=O [PC-109] | 28.3% |
| Cc1ccccc1OCC(O)CO (stereo not shown) [PC-110] | 79.2% |
| CNC(C)(C)Cc1ccccc1.CNC(C)(C)Cc1ccccc1.O=S(=O)(O)O [PC-111] | 81.8% |
| Cc1cccc(C)c1NC(=O)C1CCCCN1C.Cl (stereo not shown) [PC-112] | 74.9% |
| CN1CCCCC1CCN1c2ccccc2Sc2ccc([S+](C)[O-])cc21.O=S(=O)(O)c1ccccc1 (stereo not shown) [PC-113] | 93.8% |
| C[C@H](N)[C@H](O)c1cccc(O)c1.O=C(O)C(O)C(O)C(=O)O [PC-114] | 96.5% |
| CN1CCC(CN2c3ccccc3Sc3ccccc32)C1 (stereo not shown) [PC-115] | 22.5% |
| COc1ccc(OC)c(C(O)C(C)N)c1.Cl (stereo not shown) [PC-116] | 98.4% |
| C[N+]1(C)[C@@H]2CC[C@H]1C[C@@H](OC(=O)C(CO)c1ccccc1)C2.[Br-] (stereo partly shown) [PC-117] | 70.9% |
| C[C@](N)(Cc1ccc(O)c(O)c1)C(=O)O [PC-118] | 99.1% |
| COC(=O)c1ccc(O)cc1 [PC-119] | 69.3% |

| Compound | SFV replication % left |
| --- | --- |
| CC(=O)Oc1c(C)cc(OCC(O)CNC(C)C)c(C)c1C (stereo not shown) [PC-120] | 46.2% |
| Cc1ncc([N+](=O)[O-])n1CCO [PC-121] | 69.2% |
| COCCc1ccc(OCC(O)CNC(C)C)cc1.COCCc1ccc(OCC(O)CNC(C)C)cc1.O=C(O)C(O)C(O)C(=O)O (stereo not shown) [PC-122] | 65.7% |
| CC(C)(C)NCC(O)COc1cccc2c1CC(O)C(O)C2 (stereo not shown) [PC-123] | 60.5% |
| N/C(CC(O)COc1cccc2ccccc12)=N/O (stereo not shown) [PC-124] | 20.8% |
| CCn1cc(C(=O)O)c(=O)c2ccc(C)nc21 [PC-125] | 80.4% |
| COc1ccc2cc([C@H](C)C(=O)O)ccc2c1 [PC-126] | 92.7% |
| COc1ccc(C(=O)Cc2c(CCN(C)C)cc3c(c2OC)OCO3)c(C(=O)O)c1OC [PC-127] | 118.3% |
| NC(=O)c1cccnc1 [PC-129] | 116.9% |
| O=C1CN=C(c2ccccc2)c2cc([N+](=O)[O-])ccc2N1 [PC-130] | 46.0% |
| O=C1CN(/N=C/c2ccc([N+](=O)[O-])o2)C(=O)N1 [PC-131] | 58.9% |
| NC(=O)N/N=C/c1ccc([N+](=O)[O-])o1 [PC-132] | 83.7% |
| CC(N)C(O)c1ccc(O)c(O)c1.Cl (stereo not shown) [PC-133] | 118.0% |
| C#C[C@]1(O)CC[C@H]2[C@@H]3CCC4=CC(=O)CC[C@@H]4[C@H]3CC[C@@]21C [PC-134] | 107.8% |
| NCC(O)c1cccc(O)c1 (stereo not shown) [PC-135] | 126.3% |
| CNCCC=C1c2ccccc2CCc2ccccc21.Cl [PC-136] | 5.3% |
| COc1ccc2c(c1OC)C(=O)O[C@@H]2[C@H]1c2c(cc3c(c2OC)OCO3)CCN1C [PC-137] | 103.5% |
| Cl.NCC(O)c1ccc(O)cc1 (stereo not shown) [PC-138] | 102.1% |
| OCCN1CCN(CCCN2c3ccccc3C=Cc3ccccc32)CC1 [PC-139] | 27.5% |
| C[C@@H]1O[C@@H](O[C@H]2C[C@@H](O)[C@]3(CO)[C@H]4[C@H](O)C[C@]5(C)[C@@H](C6=CC(=O)OC6)CC[C@]5(O)[C@@H]4CC[C@]3(O)C2)[C@H](O)[C@H](O)[C@H]1O [PC-140] | 90.9% |
| O=C1Nc2ccc(Cl)cc2C(c2ccccc2)=NC1O (stereo not shown) [PC-141] | 79.1% |
